Our source for the IC50 values is ChEMBL document CHEMBL2029247, “Synthesis and structure-activity relationship of aminopyridines with substituted benzoxazoles as c-Met kinase inhibitors” (Bioorg Med Chem Lett, 2012).

The target of assay [1] is Hepatocyte growth factor receptor (Homo sapiens, UniProt P08581). Put plainly: Inhibition of recombinant c-Met by time resolved-fluorescence resonance energy transfer analysis.
The nature of another assay: cells. Particulars: Homo sapiens, Hs746T, 72 h.
Assay [2] concerns the target T1, Receptor-type tyrosine-protein kinase FLT3 (Homo sapiens, UniProt P36888).
T1 sequence (P36888 whole entry): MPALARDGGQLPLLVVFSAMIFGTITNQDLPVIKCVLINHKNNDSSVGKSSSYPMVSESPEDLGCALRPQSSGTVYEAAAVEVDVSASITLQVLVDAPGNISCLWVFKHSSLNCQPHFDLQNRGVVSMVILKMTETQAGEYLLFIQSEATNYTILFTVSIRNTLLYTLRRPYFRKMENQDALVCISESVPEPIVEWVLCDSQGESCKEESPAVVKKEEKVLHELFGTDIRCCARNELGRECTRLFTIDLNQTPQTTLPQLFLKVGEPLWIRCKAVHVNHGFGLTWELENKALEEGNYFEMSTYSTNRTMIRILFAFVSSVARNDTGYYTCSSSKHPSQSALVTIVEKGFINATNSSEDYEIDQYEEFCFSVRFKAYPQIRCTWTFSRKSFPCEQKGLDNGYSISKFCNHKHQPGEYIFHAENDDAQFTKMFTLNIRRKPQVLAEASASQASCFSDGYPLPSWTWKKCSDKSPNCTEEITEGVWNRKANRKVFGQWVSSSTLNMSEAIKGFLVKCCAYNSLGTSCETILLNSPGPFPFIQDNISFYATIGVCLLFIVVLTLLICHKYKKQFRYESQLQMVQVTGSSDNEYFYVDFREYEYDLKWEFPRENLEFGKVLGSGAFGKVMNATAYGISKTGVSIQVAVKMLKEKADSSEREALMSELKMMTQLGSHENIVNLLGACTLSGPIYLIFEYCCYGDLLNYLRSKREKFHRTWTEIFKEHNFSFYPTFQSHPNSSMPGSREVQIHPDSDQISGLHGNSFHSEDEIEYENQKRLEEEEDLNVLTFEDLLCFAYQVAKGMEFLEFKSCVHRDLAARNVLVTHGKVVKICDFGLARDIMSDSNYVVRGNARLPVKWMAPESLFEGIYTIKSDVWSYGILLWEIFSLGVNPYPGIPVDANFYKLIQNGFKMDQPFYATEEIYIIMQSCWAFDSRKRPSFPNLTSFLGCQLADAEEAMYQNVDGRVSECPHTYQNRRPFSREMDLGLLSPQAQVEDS
Put plainly: Inhibition of recombinant FLT3 by time resolved-fluorescence resonance energy transfer analysis.

Assay [3] deals with Receptor-type tyrosine-protein kinase FLT3 (Homo sapiens, UniProt P36888, D835Y). Put plainly: Inhibition of FLT3 D835Y mutant.
Assay [4] has as its target Macrophage-stimulating protein receptor (Homo sapiens, UniProt Q04912). Put plainly: Inhibition of Ron.
The next assay deals with T2, Aurora kinase A (Homo sapiens, UniProt O14965).
T2 sequence (O14965 whole entry): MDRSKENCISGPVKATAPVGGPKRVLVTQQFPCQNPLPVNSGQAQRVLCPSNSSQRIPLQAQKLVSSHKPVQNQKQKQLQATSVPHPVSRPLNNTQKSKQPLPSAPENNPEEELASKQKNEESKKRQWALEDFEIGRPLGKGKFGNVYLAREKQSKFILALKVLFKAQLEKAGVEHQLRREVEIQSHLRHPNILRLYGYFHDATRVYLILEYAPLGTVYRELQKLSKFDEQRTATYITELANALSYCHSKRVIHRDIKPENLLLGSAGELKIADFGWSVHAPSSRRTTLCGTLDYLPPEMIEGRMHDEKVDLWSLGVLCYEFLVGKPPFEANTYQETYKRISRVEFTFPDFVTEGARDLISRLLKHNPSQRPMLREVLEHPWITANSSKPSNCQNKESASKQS
Put plainly: Inhibition of Aurora A.

The structures appear in SMILES notation.

Description for cells: Cytotoxicity against human Hs 746T cells after 72 hrs by WST-8 assay

The IC50 is the concentration at which inhibition is half-maximal. On to `Nc1ncc(-c2cnn(C3CCNCC3)c2)cc1-c1nc2cc(Cl)ccc2o1`, for which the IC50 in assay [1] was determined as 53 nM.

On to `Nc1ncc(-c2cnn(C3CCNCC3)c2)cc1-c1nc2cc(Cl)cc(F)c2o1`, for which the IC50 in assay [1] was 41 nM.

For `CC(=O)c1ccc2nc(-c3cc(-c4cnn(C5CCNCC5)c4)cnc3N)oc2c1`, the IC50 in assay [1] amounted to 800 nM.

On to `CC(O)c1ccc2nc(-c3cc(-c4cnn(C5CCNCC5)c4)cnc3N)oc2c1` (stereo not drawn), for which the 50% inhibitory concentration (IC50) in assay [1] worked out at 130 nM.

Turning to `Nc1ncc(-c2cnn(C3CCNCC3)c2)cc1-c1nc2ccc(-c3cccnc3)cc2o1`, in assay [1], the IC50 came to 28 nM.

`Nc1ncc(-c2cnn(C3CCNCC3)c2)cc1-c1nc2ccc(-c3cc[nH]n3)cc2o1`: in assay [1], the IC50 was 210 nM.

For the compound `Nc1ncc(-c2cnn(C3CCNCC3)c2)cc1-c1nc2cccc(-c3ccccn3)c2o1`, half-maximal inhibition in the assay “cells” (IC50) required 240 nM.

`COc1ccc(-c2cccc3nc(-c4cc(-c5cnn(C6CCNCC6)c5)cnc4N)oc23)cc1`: the 50% inhibitory concentration (IC50) in assay [1] stood at 77 nM.

For the compound `CC(C)Nc1cccc2nc(-c3cc(-c4cnn(C5CCNCC5)c4)cnc3N)oc12`, in assay [1], the IC50 was determined as 130 nM.

Consider `CNc1ccc2oc(-c3cc(-c4cnn(C5CCNCC5)c4)cnc3N)nc2c1`, for which the IC50 in assay [1] turned out to be 160 nM.

With `CC(=O)Nc1ccc2oc(-c3cc(-c4cnn(C5CCNCC5)c4)cnc3N)nc2c1` [listing 1 of 2 here], in assay [1], the IC50 worked out at 540 nM.

Consider `CCCNc1ccc2nc(-c3cc(-c4cnn(C5CCNCC5)c4)cnc3N)oc2c1`, for which the IC50 in assay [1] stood at 150 nM.

With `Nc1ncc(-c2cnn(C3CCNCC3)c2)cc1-c1nc2ccc(Nc3ncccn3)cc2o1`, the IC50 in assay [1] was found to be 63 nM.

For `Nc1ncc(-c2cnn(C3CCNCC3)c2)cc1-c1nc2ccc(Oc3ccncn3)cc2o1`, the IC50 in assay [1] amounted to 34 nM.

Turning to `Nc1ncc(-c2cnn(C3CCNCC3)c2)cc1-c1nc2ccc(Oc3ncccn3)cc2o1`, in assay [1], the IC50 was 23 nM.

For `Nc1ncc(-c2cnn(C3CCNCC3)c2)cc1-c1nc2cc(O)ccc2o1`, the IC50 in assay [1] stood at 22 nM.

As for `Nc1ncc(-c2cnn(C3CCNCC3)c2)cc1-c1nc2ccc(O)cc2o1`, the IC50 in assay [2] is 4 nM; in assay [3] it was 0.3 nM; in the assay “cells”, 450 nM; in assay [4], 14 nM; against Aurora kinase A, 90 nM; in assay [1] it was 19 nM.

As for `Nc1ncc(-c2cnn(C3CCNCC3)c2)cc1-c1nc2cccc(O)c2o1`, in assay [1], the IC50 was 110 nM.

On to `Cc1cc2oc(-c3cc(-c4cnn(C5CCNCC5)c4)cnc3N)nc2cc1O`, for which, in the assay “cells”, the IC50 worked out at 12 nM.

Turning to `Cc1cc2oc(-c3cc(-c4cnn(C5CCNCC5)c4)cnc3N)nc2c(C)c1O`, the IC50 in assay [1] came out at 3 nM.

In turn, `CCc1cc2oc(-c3cc(-c4cnn(C5CCNCC5)c4)cnc3N)nc2cc1O` yielded an IC50 in “cells” of 22 nM.

Take `Cc1cc2nc(-c3cc(-c4cnn(C5CCNCC5)c4)cnc3N)oc2cc1O`: the IC50 in assay [1] is 180 nM.

In the case of `Cc1c(O)ccc2nc(-c3cc(-c4cnn(C5CCNCC5)c4)cnc3N)oc12`, the values for the IC50 (in assay [2]; in the assay “cells”; in assay [1]) were 34 nM, 35 nM and 0.2 nM, respectively.

With `Nc1ncc(-c2cnn(C3CCNCC3)c2)cc1-c1nc2ccc(O)c(-c3cccnc3)c2o1`, the IC50 in assay [1] worked out at 4 nM.

In turn, `Nc1ncc(-c2cnn(C3CCNCC3)c2)cc1-c1nc2ccc(O)c(-c3cnccn3)c2o1` came in with an IC50 in “cells” of 180 nM.

For the compound `Nc1ncc(-c2cnn(C3CCNCC3)c2)cc1-c1nc2ccc(O)c(-c3ccccc3)c2o1`, the IC50 amounted to 14 nM in assay [2], 10 nM in “cells” and 48 nM in assay [1].

Take `Nc1ccc2oc(-c3cc(-c4cnn(C5CCNCC5)c4)cnc3N)nc2c1`: the IC50 in assay [1] stood at 56 nM.

In the case of `Nc1ccc2nc(-c3cc(-c4cnn(C5CCNCC5)c4)cnc3N)oc2c1`, the results for the IC50 (in assay [2]; in the assay “cells”; in assay [1]) were 3.6 nM, 3700 nM and 14 nM, respectively.

As to `Nc1ncc(-c2cnn(C3CCNCC3)c2)cc1-c1nc2ccc(NC(=O)Nc3ccccc3)cc2o1`, the IC50 in assay [1] turned out to be 130 nM.

`CS(=O)(=O)Nc1ccc2nc(-c3cc(-c4cnn(C5CCNCC5)c4)cnc3N)oc2c1`: the IC50 in assay [1] is 88 nM.

Take `Nc1ncc(-c2cnn(C3CCNCC3)c2)cc1-c1nc2ccc(NS(=O)(=O)c3ccc(F)cc3)cc2o1`: the half-inhibitory concentration (IC50) in assay [1] was 67 nM.

On to `Nc1ncc(-c2cnn(C3CCNCC3)c2)cc1-c1nc2ccc(Nc3ccc(F)cc3)cc2o1`, for which, in assay [1], the half-inhibitory concentration (IC50) was determined as 410 nM.

For the compound `Cc1ccc(S(=O)(=O)NC(=O)Nc2ccc3nc(-c4cc(-c5cnn(C6CCNCC6)c5)cnc4N)oc3c2)cc1`, the IC50 in assay [1] stood at 45 nM.

Turning to `Cn1cc(-c2cnc(N)c(-c3nc4ccc(Cl)cc4o3)c2)cn1`, the IC50 in assay [1] was 1700 nM.

In the case of `CN1CCC(n2cc(-c3cnc(N)c(-c4nc5ccc(F)cc5o4)c3)cn2)CC1`, the IC50 in assay [1] is 240 nM.

As for `Nc1ncc(-c2cnn(C3CCN(CCO)CC3)c2)cc1-c1nc2ccc(F)cc2o1`, the concentration for half-maximal inhibition (IC50) in assay [1] turned out to be 90 nM.

For `CC(=O)N1CCC(n2cc(-c3cnc(N)c(-c4nc5ccc(Cl)cc5o4)c3)cn2)CC1`, the IC50 in assay [1] amounted to 220 nM.

In the case of `CC(=O)N1CCC(n2cc(-c3cnc(N)c(-c4nc5cc(O)c(C)cc5o4)c3)cn2)CC1`, in assay [1], the 50% inhibitory concentration (IC50) was found to be 51 nM.

`CC(=O)N1CCC(n2cc(-c3cnc(N)c(-c4nc5c(C)c(O)c(C)cc5o4)c3)cn2)CC1`: the concentration for half-maximal inhibition (IC50) in assay [1] is 28 nM.

With `Nc1ncc(-c2cnn(CCO)c2)cc1-c1nc2cccc(-c3ccccn3)c2o1`, the half-maximal inhibitory concentration (IC50) in assay [1] turned out to be 53 nM.

With `Cn1cc(-c2cnc(N)c(-c3nc4cccc(-c5ccccn5)c4o3)c2)cn1`, the IC50 in assay [1] came out at 14 nM.

`CC(=O)Nc1ccc2oc(-c3cc(-c4cnn(C5CCNCC5)c4)cnc3N)nc2c1` [listing 2 of 2 here]: the IC50 in assay [1] amounted to 540 nM.
